Test system: HC11 cells
Test: Time course of luciferase expression after nucleoporation of HC11 cells
Assay type: cell-based, mouse
Conditions: luciferase activity up to 10 h after nucleoporation, normalized for Luc-A60 delivered
Method: Two methods, electroporation and nucleoporation, were used to deliver RNA into cells. In case of electroporation, 5 μg of RNA were introduced into 10^7 HC11 cells in a total volume 400 μl of serum-reduced RPMI 1640 medium in a Gene pulser cuvette (4 mm gap) with a Bio-Rad Genepulser™ set at 0.22 kV and 960 μF. Following discharge, the cells were washed twice with PBS, centrifuged for 2 min 300×g at room temperature, resuspended in prewarmed complete medium, and placed at 37° C. Nucleoporation was performed with an Amaxa Nucleofector II (Amaxa Biosystems) in accordance with manufacture's recommendations. One microgram of RNA was introduced into 10^6 HC11 cells with Nucleofector Solution V and the set of recommended regimens (program T-024).
For cytoplasmic RNA extraction, 2×10^5 cells were lysed in 175 μl of lysis buffer (50 mM Tris-HCl, pH 8.0, 140 mM NaCl, 1.5 mM MgCl2, 0.5% (v/v) Igepal (Sigma), and 1 mM dithiothreitol). […] Luciferase activity of cell extracts was measured according to the manufacturer's protocol (Promega).
We also determined the overall accumulation of luciferase, as measured by its enzymatic activity, as a function of time for mRNAs capped with m2^7,2′-OGp3G, m2^7,2′-OGppspG (D1), and m2^7,2′-OGppspG (D2). […] Luciferase activity measured in the supernatant was normalized for the amount of Luc-A60 delivered into the cells. […]

With m2^7,2′-OGppspG (D2) [Compound 5b] the “overall accumulation of luciferase” value was “The most luciferase accumulated”.

Source: patent US8153773B2, “Synthesis and use of anti-reverse phosphorothioate analogs of the messenger RNA cap” (Board of Supervisors of Louisiana State University and …, priority 2007, dated 2012)
